According to patent US20080226571A1, “Compositions and methods to effect enhanced photoprotection against UV A and UV B induced damage of human skin” (priority 2007, published 2008):
Marks after values point to notes of the source that are not given here.

What was measured:
Format in all cases: cell-based
[1] = test system: cells of the skin; test: Relative cytotoxicity (summary Table I); details: summary in words
[2] = test system: HaCaT human keratinocyte cell line; test: UV B protection of HaCaT keratinocytes, topical application model (Protocol I, SRB viability); details: for % UV B protection as compared to control: Table B, Topical model; for UV protection UV B: summary in words, Table I, HaCaT, topical and oral protocols not separated
Experimental: (§1) The protocol is based on evaluating the reduction in photo damage caused by UV A and UV B in HaCaT human keratinocyte cell line. The cell viability is measured by Sulphorhodamine B assay (SRB assay) after exposure to UV rays. The percentage of UV protection is calculated based on the number of viable cells in the control (untreated) and test HaCaT human keratinocytes (treated with the labdane-diterpenoids based composition of the present invention) after UV exposure. The photoprotection assays to screen compounds for their UV protection efficacy during topical and oral applications as discussed in J Am Acad Dermatol 2003; 49: 458-472 is adopted as a reference.
(§2) Protocol I—Screening compounds suited for topical applications for UV protection efficacy 0.5×10^4 HaCaT human keratinocyte cells/well are counted and seeded into a 96 well micro titer plates. The cells are incubated at 37° C. in 5% CO2 for 24 hours. The growth medium is then removed and replaced with medium containing varying concentrations of the labdane-diterpenoids based composition of the present invention. The cells are immediately exposed to ultraviolet irradiation and further incubated for 72 hours. After 72 hours, the cell viability is determined by SRB assay.
(§3) The UV A exposure in both the protocols involves three UV A bulbs providing 108 watts of power. The plates are exposed for 1 hour at a distance of 5 cm from the source of light. The UV B exposure in both the protocols involves three UV B bulbs which provide 100 μwatt/cm^2 or 0.14 J/cm^2 irradiation dose. The plates are exposed for 7 minutes at a distance of 30 cm from the source of light.

[3] = test system: B16F1 mouse melanoma cells; test: Intracellular melanin enhancement; details: for Melanin enhancement: summary in words, Table I
Experimental: B16F1 mouse melanoma cells are treated with varying concentrations of actives I, II and III and other optional actives or combinations thereof at a time interval of 3 days for nine consecutive days. The intracellular melanin in both the controls and test B16F1 mouse melanoma cells is extracted by 1 N NaOH and subjected to a heat treatment at 100° C. The extracted melanin is estimated at 405 nm in a Fluostar Optima Microplate Reader.

[4] = test system: HaCaT human keratinocyte cell line; test: UV A protection of HaCaT keratinocytes, topical application model (Protocol I, SRB viability); details: for % UV A protection: Topical model; for UV protection UV A: summary in words, Table I, HaCaT, topical and oral protocols not separated
Experimental: as §1, §2, §3

[5] = test system: HaCaT human keratinocyte cell line; test: UV B protection of HaCaT keratinocytes, oral application model (Protocol II)
Experimental: as §1
(§4) Protocol II—Screening compounds suited for oral applications for UV protection efficacy 0.5×10^4 HaCaT human keratinocyte cells/well are counted and seeded into a 96 well micro titer plates. The cells are incubated at 37° C. in 5% CO2 for 24 hours. The growth medium is then removed and replaced with medium containing varying concentrations of the labdane-diterpenoids based composition of the present invention. The cells are then incubated for 24 hours to be followed by UV treatment. The UV treated cells are further incubated for 48 hours after which, cell viability is determined using the SRB or neutral red uptake assays.
as §3

[6] = test system: HaCaT human keratinocyte cell line; test: UV A protection of HaCaT keratinocytes, oral application model (Protocol II)
Experimental: as §1, §4, §3

Compound | % UV B protection as compared to control ([2]; 0.25 μg/ml) [%] | % UV B protection as compared to control ([2]; 0.5 μg/ml) [%] | % UV B protection as compared to control ([2]; 1 μg/ml) | % UV B protection as compared to control ([2]; 2 μg/ml) | % UV B protection as compared to control ([2]; 3 μg/ml) | % UV B protection as compared to control ([2]; 5 μg/ml) | % UV B protection as compared to control ([2]; 12 μg/ml) | UV protection UV B [2] | No. of folds of Melanin Enhancement compared to control ([3]; 0.25 μg/ml) [folds] | No. of folds of Melanin Enhancement compared to control ([3]; 0.5 μg/ml) [folds] | No. of folds of Melanin Enhancement compared to control ([3]; 1 μg/ml) | No. of folds of Melanin Enhancement compared to control ([3]; 2 μg/ml) | No. of folds of Melanin Enhancement compared to control ([3]; 3 μg/ml) | No. of folds of Melanin Enhancement compared to control ([3]; 5 μg/ml) | No. of folds of Melanin Enhancement compared to control ([3]; 12 μg/ml) | Melanin enhancement [3] | % UV A protection ([4]; 0.25 μg/ml) [%] | % UV A protection ([4]; 0.5 μg/ml) [%] | % UV A protection ([4]; 1 μg/ml) | % UV A protection ([4]; 2 μg/ml) | other results
C=C[C@@]1(C)CC(=O)[C@]2(O)[C@@]3(C)[C@@H](O)CCC(C)(C)[C@@H]3[C@H](O)[C@H](OC(C)=O)[C@@]2(C)O1 [Active III, 7β-acetoxy-8,13-epoxy-1α,6β,9α-trihydroxylabd-14-en-11-one] | 0 | 2 | 5% | 5% | 5% | toxic | toxic | Nil | 1 | 1.1 | 1.5* folds | 2* folds | 2.8* folds | toxic | toxic | Moderate | 5 | 10 | 15* % | 20* % | Cytotoxicity [1]: Cytotoxic; % UV A protection ([4]; 3 μg/ml): 29* %; % UV A protection ([4]; 5 μg/ml): toxic; % UV A protection ([4]; 12 μg/ml): toxic; UV protection UV A [4]: Moderate; % UV B protection ([5]; 0.25 μg/ml): 0%; % UV B protection ([5]; 0.5 μg/ml): 2%; % UV B protection ([5]; 1 μg/ml): 4%; % UV B protection ([5]; 2 μg/ml): 4%; % UV B protection ([5]; 3 μg/ml): 5%; % UV B protection ([5]; 5 μg/ml): toxic; % UV B protection ([5]; 12 μg/ml): toxic; % UV A protection ([6]; 0.25 μg/ml): 10%; % UV A protection ([6]; 0.5 μg/ml): 15* %; % UV A protection ([6]; 1 μg/ml): 20* %; % UV A protection ([6]; 2 μg/ml): 26* %; % UV A protection ([6]; 3 μg/ml): 38* %; % UV A protection ([6]; 5 μg/ml): toxic; % UV A protection ([6]; 12 μg/ml): toxic
C=C[C@@]1(C)CC(=O)[C@]2(O)[C@@]3(C)[C@@H](O)CCC(C)(C)[C@@H]3[C@H](O)[C@H](O)[C@@]2(C)O1 [Active I, 8,13-epoxy-1α,6β,7β,9α-tetrahydroxylabd-14-en-11-one] | 10 | 13 | 20* % | 35* % | 45* % | 50* % | 55* % | Significant | 1.1 | 1.25 | 1.9* folds | 2.8* folds | 3.2* folds | 3.8* folds | 4.2* folds | Significant | 14 | 16 | 19% | 31* % | melanin enhancement activity, comparison in words ([3]; Tables C and E): more than active II or active III; dose levels still tolerated and effective, relative to the maximum tolerated dose levels of active III ([3]; mouse): 2.4 times; % UV A protection ([4]; 3 μg/ml): 42* %; % UV A protection ([4]; 5 μg/ml): 49* %; % UV A protection ([4]; 12 μg/ml): 59* %; UV protection UV A [4]: Significant; % UV B protection ([5]; 0.25 μg/ml): 15* %; % UV B protection ([5]; 0.5 μg/ml): 35* %; % UV B protection ([5]; 1 μg/ml): 65* %; % UV B protection ([5]; 2 μg/ml): 80* %; % UV B protection ([5]; 3 μg/ml): 91* %; % UV B protection ([5]; 5 μg/ml): 97* %; % UV B protection ([5]; 12 μg/ml): 98* %; % UV A protection ([6]; 0.25 μg/ml): 24* %; % UV A protection ([6]; 0.5 μg/ml): 29* %; % UV A protection ([6]; 1 μg/ml): 58* %; % UV A protection ([6]; 2 μg/ml): 82* %; % UV A protection ([6]; 3 μg/ml): 98* %; % UV A protection ([6]; 5 μg/ml): 97* %; % UV A protection ([6]; 12 μg/ml): 98* %
